Reference: PubChem BioAssay (NCI)
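Growth conditions: 96-well plates. Treatment: test compound, 48 hours, 5 concentrations. Analysis: linear interpolation between bracketing concentrations; unreached endpoints set to highest concentration. GI50 = concentration required for 50% inhibition of growth. TGI denotes the concentration required for complete inhibition of growth.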

Tests used:
Test in all cases: NCI tumour cell line growth inhibition, 48 h
[1] = test system: UO-31 renal
[2] = test system: T-47D breast
[3] = test system: EKVX NSCLC
[4] = test system: SW-620 colon
[5] = test system: CAKI-1 renal
[6] = test system: NCI-H23 lung
[7] = test system: HCT-15 colon
[8] = test system: ACHN renal
[9] = test system: MALME-3M melanoma
[10] = test system: UACC-257 melanoma
[11] = test system: SNB-19 CNS
[12] = test system: SK-MEL-28 melanoma
[13] = test system: MDA-MB-468 breast
[14] = test system: SK-MEL-2 melanoma
[15] = test system: NCI-H460 lung
[16] = test system: MDA-MB-231 breast
[17] = test system: MDA-MB-435
[18] = test system: M14 melanoma
[19] = test system: U251 CNS
[20] = test system: 786-0 renal
[21] = test system: SK-OV-3 ovarian
[22] = test system: NCI/ADR-RES ovarian
[23] = test system: MCF7 breast
[24] = test system: RXF 393 renal
[25] = test system: KM12 colon
[26] = test system: A549 NSCLC
[27] = test system: NCI-H226 lung
[28] = test system: HOP-62 NSCLC
[29] = test system: HOP-92 NSCLC
[30] = test system: BT-549 breast
[31] = test system: CCRF-CEM leukemia
[32] = test system: DU-145 prostate
[33] = test system: COLO 205 colon
[34] = test system: A498 renal
[35] = test system: K-562 leukemia
[36] = test system: OVCAR-4 ovarian
[37] = test system: OVCAR-5 ovarian
[38] = test system: SF-539 CNS
[39] = test system: UACC-62 melanoma
[40] = test system: HCC-2998 colon
[41] = test system: NCI-H522 lung
[42] = test system: TK-10 renal
[43] = test system: LOX IMVI melanoma
[44] = test system: SF-268 CNS
[45] = test system: SNB-75 CNS
[46] = test system: PC-3 prostate
[47] = test system: IGROV1 ovarian
[48] = test system: HT29 colon
[49] = test system: HCT-116 colon
[50] = test system: SK-MEL-5 melanoma
[51] = test system: OVCAR-8 ovarian
[52] = test system: SR leukemia
[53] = test system: MOLT-4 leukemia
[54] = test system: SN12C renal
[55] = test system: RPMI-8226 leukemia
[56] = test system: HS 578T breast
[57] = test system: SF-295 CNS
[58] = test system: HL-60(TB) leukemia

Structure (SMILES): C=C(c1ccc(OC)c(N)c1)c1cc(C)nc2ccccc12
- GI50 [1]: < 0.01 µM
- TGI [1]: 64.6 µM
- GI50 [2]: 12.6 µM
- TGI [2]: > 100 µM
- GI50 [3]: < 0.01 µM
- TGI [3]: > 51.6 µM
- GI50 [4]: < 0.01 µM
- TGI [4]: > 100 µM
- GI50 [5]: < 0.01 µM
- TGI [5]: > 96.2 µM
- GI50 [6]: < 0.01 µM
- TGI [6]: 36.1 µM
- GI50 [7]: < 0.01 µM
- GI50 [8]: < 0.01 µM
- TGI [8]: 61.9 µM
- GI50 [9]: < 0.01 µM
- TGI [9]: 31.6 µM
- GI50 [10]: 3.98 µM
- TGI [10]: 75 µM
- GI50 [11]: < 0.01 µM
- TGI [11]: > 100 µM
- GI50 [12]: < 0.01 µM
- TGI [12]: 98.2 µM
- GI50 [13]: < 0.01 µM
- TGI [13]: 76.3 µM
- GI50 [14]: < 0.01 µM
- TGI [14]: < 0.01 µM
- GI50 [15]: < 0.01 µM
- TGI [15]: > 32 µM
- GI50 [16]: < 0.01 µM
- TGI [16]: < 0.01 µM
- GI50 [17]: < 0.01 µM
- TGI [17]: 0.118 µM
- GI50 [18]: < 0.01 µM
- TGI [18]: 15.2 µM
- GI50 [19]: < 0.01 µM
- TGI [19]: > 100 µM
- GI50 [20]: < 0.01 µM
- TGI [20]: > 100 µM
- GI50 [21]: < 0.01 µM
- GI50 [22]: < 0.01 µM
- TGI [22]: < 0.01 µM
- GI50 [23]: < 0.01 µM
- TGI [23]: > 37.1 µM
- GI50 [24]: < 0.01 µM
- TGI [24]: 79 µM
- GI50 [25]: < 0.01 µM
- TGI [25]: 11.5 µM
- GI50 [26]: < 0.01 µM
- TGI [26]: > 100 µM
- GI50 [27]: < 0.0115 µM
- TGI [27]: > 100 µM
- GI50 [28]: < 0.01 µM
- TGI [28]: > 100 µM
- GI50 [29]: 0.18 µM
- TGI [29]: 43 µM
- GI50 [30]: < 0.01 µM
- GI50 [31]: < 0.01 µM
- GI50 [32]: < 0.01 µM
- TGI [32]: > 100 µM
- GI50 [33]: < 0.01 µM
- TGI [33]: < 0.01 µM
- GI50 [34]: 36.8 µM
- TGI [34]: > 100 µM
- GI50 [35]: < 0.01 µM
- TGI [35]: > 93 µM
- GI50 [36]: 7.41 µM
- TGI [36]: > 100 µM
- GI50 [37]: < 0.01 µM
- TGI [37]: > 100 µM
- GI50 [38]: < 0.01 µM
- TGI [38]: < 0.01 µM
- GI50 [39]: < 0.01 µM
- TGI [39]: 22.4 µM
- GI50 [40]: < 0.01 µM
- TGI [40]: 0.466 µM
- GI50 [41]: < 0.01 µM
- TGI [41]: < 0.01 µM
- GI50 [42]: 18.7 µM
- TGI [42]: > 100 µM
- GI50 [43]: < 0.01 µM
- TGI [43]: 27.4 µM
- GI50 [44]: < 0.01 µM
- TGI [44]: 37.4 µM
- GI50 [45]: < 0.01 µM
- TGI [45]: 83.7 µM
- GI50 [46]: < 0.01 µM
- TGI [46]: > 100 µM
- GI50 [47]: < 0.01 µM
- TGI [47]: > 100 µM
- GI50 [48]: < 0.01 µM
- TGI [48]: < 0.01 µM
- GI50 [49]: < 0.01 µM
- TGI [49]: > 100 µM
- GI50 [50]: < 0.01 µM
- TGI [50]: < 0.01 µM
- GI50 [51]: < 0.01 µM
- GI50 [52]: < 0.01 µM
- TGI [52]: 34.6 µM
- GI50 [53]: < 0.01 µM
- TGI [53]: 26.6 µM
- GI50 [54]: < 0.01 µM
- TGI [54]: > 44.9 µM
- GI50 [55]: < 0.01 µM
- TGI [55]: 21.3 µM
- GI50 [56]: < 0.01 µM
- TGI [56]: > 100 µM
- GI50 [57]: < 0.01 µM
- GI50 [58]: < 0.01 µM
- TGI [58]: < 0.01 µM
